# Experimental data: patent publication US8614201B2 (Janssen Pharmaceutica NV, priority 2009, dated 2013)
# Molecular target: Human TRPA1 (Homo sapiens, UniProt O75762)
# Experiment: Assay 1: In vitro cellular testing of TRPA1 modulation (CHO-TREx, Fluo-3 calcium fluorescence, AITC agonist)
# Format: cell-based
# Set-up: expressed in transfected cells; host or cells: CHO-TREx cells (Invitrogen), vector pcDNA4/TO
# Conditions: CHO-TREx cells expressing human TRPA1; Fluo-3 fluorescence (FLIPR/Tetra); agonist 15 μM allyl isothiocyanate (AITC); 30 minute antagonist incubation
# In short: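 Tetracycline-induced CHO-TREx cells stably expressing human TRPA1, loaded with 4 μM Fluo-3 AM, preincubated 30 min with compound (serial dilution typically from 10 μM, three-fold steps) in HEPES saline pH 7.4. Fluorescence change over 3 min after 15 μM AITC; IC50 from Hill fit versus no-antagonist and 10 μM ruthenium red controls.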
# Chain of Human TRPA1 (O75762 whole entry): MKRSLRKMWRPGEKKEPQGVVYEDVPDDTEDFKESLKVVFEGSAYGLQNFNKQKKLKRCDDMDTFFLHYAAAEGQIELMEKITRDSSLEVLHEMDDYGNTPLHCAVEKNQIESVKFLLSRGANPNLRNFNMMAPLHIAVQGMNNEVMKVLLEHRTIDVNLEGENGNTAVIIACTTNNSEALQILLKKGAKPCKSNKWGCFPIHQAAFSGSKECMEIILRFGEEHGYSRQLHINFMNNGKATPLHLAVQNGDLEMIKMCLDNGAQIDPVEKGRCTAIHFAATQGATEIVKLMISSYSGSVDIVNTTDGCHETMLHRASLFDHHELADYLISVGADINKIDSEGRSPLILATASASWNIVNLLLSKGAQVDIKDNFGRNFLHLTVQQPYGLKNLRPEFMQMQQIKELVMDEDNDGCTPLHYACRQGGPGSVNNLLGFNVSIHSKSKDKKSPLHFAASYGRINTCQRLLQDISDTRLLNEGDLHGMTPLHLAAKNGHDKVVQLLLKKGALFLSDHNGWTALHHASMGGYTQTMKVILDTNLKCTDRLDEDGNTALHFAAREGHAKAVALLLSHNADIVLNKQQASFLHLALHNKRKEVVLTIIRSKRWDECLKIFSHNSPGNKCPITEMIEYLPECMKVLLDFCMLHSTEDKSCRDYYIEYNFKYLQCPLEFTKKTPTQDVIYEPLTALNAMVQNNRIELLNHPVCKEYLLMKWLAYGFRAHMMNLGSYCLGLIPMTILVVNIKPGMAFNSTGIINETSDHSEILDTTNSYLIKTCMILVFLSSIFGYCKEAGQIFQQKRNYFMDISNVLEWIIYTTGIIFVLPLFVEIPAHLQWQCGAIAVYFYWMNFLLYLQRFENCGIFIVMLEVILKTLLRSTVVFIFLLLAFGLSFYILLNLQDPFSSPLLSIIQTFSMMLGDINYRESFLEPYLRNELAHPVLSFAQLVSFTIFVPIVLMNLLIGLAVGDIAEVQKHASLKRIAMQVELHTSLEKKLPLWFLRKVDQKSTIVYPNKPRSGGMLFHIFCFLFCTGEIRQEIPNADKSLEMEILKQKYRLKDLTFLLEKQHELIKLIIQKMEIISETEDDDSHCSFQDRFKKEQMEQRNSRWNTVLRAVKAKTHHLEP
row,IC50,Structure (SMILES)
1,5.97 µM,"O=C(NCc1cc(-c2ccc(C(F)(F)F)cc2)nc(N2CCN(c3ccccc3F)CC2)c1)[C@@H]1C=CCN1S(=O)(=O)c1ccc(F)cc1 [Example 326, (2S)—N-({2-[4-(2-Fluorophenyl)piperazin-1-yl]-6-[4-(trifluoromethyl)phenyl]pyridin-4-yl}methyl)-1-[(4-fluorophenyl)sulfonyl]-2,5-dihydro-1H-pyrrole-2-carboxamide]"
2,0.381 µM,"O=C(NCc1cccc(-c2ccccc2)c1)[C@@H]1CCCN1S(=O)(=O)c1ccc(F)cc1 [Example 98, 1-(4-Fluorobenzenesulfonyl)-pyrrolidine-2S-carboxylic acid (biphenyl-3-ylmethyl)-amide]"
3,> 10 µM,"O=C(NCc1cc(NCc2ccncc2)nc(-c2ccc(C(F)(F)F)cc2)c1)[C@@H]1C=CCN1S(=O)(=O)c1ccc(F)cc1 [Example 344, (2S)-1-[(4-Fluorophenyl)sulfonyl]-N-({2-[(pyridin-4-ylmethyl)amino]-6-[4-(trifluoromethyl)phenyl]pyridin-4-yl}methyl)-2,5-dihydro-1H-pyrrole-2-carboxamide]"
4,0.034 µM,"CC(Nc1nc(CNC(=O)[C@@H]2CCCN2S(=O)(=O)c2ccc(F)cc2)cc(-c2ccc(C(F)(F)F)cc2)n1)c1ccccn1 (stereo partly drawn) [Example 16, 1-(4-Fluoro-benzenesulfonyl)-pyrrolidine-2S-carboxylic acid [2-(1-pyridin-2-yl-ethylamino)-6-(4-trifluoromethyl-phenyl)-pyrimidin-4-ylmethyl]-amide]"
5,0.047 µM,"O=C(NCc1cccc(-c2ccc(C(F)(F)F)cc2)c1)[C@@H]1CC(F)(F)CN1S(=O)(=O)c1ccc(F)cc1 [Example 119, (2S)-4,4-Difluoro-1-(4-fluoro-benzenesulfonyl)-pyrrolidine-2-carboxylic acid (4′-trifluoromethyl-biphenyl-3-ylmethyl)-amide]"
6,1.83 µM,"CC(Nc1cc(CNC(=O)[C@@H]2CC(F)(F)CN2S(=O)(=O)c2ccc(Cl)s2)cc(-c2ccc(C(F)(F)F)cc2)n1)c1ccncc1 (stereo partly drawn) [Example 400, 1-[(5-Chlorothiophen-2-yl)sulfonyl]-4,4-difluoro-N-({2-[(1-pyridin-4-ylethyl)amino]-6-[4-(trifluoromethyl)phenyl]pyridin-4-yl}methyl)-L-prolinamide]"
7,0.02 µM,"O=C(NCc1cc(-c2ccc(C(F)(F)F)cc2)ncn1)[C@@H]1CCCN1S(=O)(=O)c1cccs1 [Example 170, 1-(Thiophene-2-sulfonyl)-pyrrolidine-2S-carboxylic acid [6-(4-trifluoromethylphenyl)-pyrimidin-4-ylmethyl]-amide]"
8,0.029 µM,"O=C(NCc1cc(-c2ccc(C(F)(F)F)cc2)nc(N2CCCCC2)c1)[C@@H]1CCCN1S(=O)(=O)c1ccc(F)cc1 [Example 318, 1-(4-Fluoro-benzenesulfonyl)-pyrrolidine-S2-carboxylic acid [6′-(4-trifluoromethyl-phenyl)-3,4,5,6-tetrahydro-2H-[1,2′]bipyridinyl-4′-ylmethyl]-amide]"
9,0.844 µM,"CC(=O)c1ccc(-c2cccc(CNC(=O)[C@@H]3CCCN3S(=O)(=O)c3ccc(F)cc3)c2)cc1 [Example 89, 1-(4-Fluorobenzenesulfonyl)-pyrrolidine-2S-carboxylic acid (4′-acetylbiphenyl-3-ylmethyl)-amide]"
10,0.037 µM,"O=C(NCc1cc(-c2ccc(OC(F)(F)F)cc2)ccn1)[C@@H]1CCCN1S(=O)(=O)c1ccc(F)cc1 [Example 137, 1-(4-Fluoro-benzenesulfonyl)-pyrrolidine-2S-carboxylic acid [4-(4-trifluoromethoxy-phenyl)-pyridin-2-ylmethyl]-amide]"
11,> 10 µM,"O=C(NCc1cc(-c2ccc(C(F)(F)F)cc2)nc(N2CCN(Cc3ccncc3)CC2)c1)[C@@H]1CC(F)(F)CN1S(=O)(=O)c1ccc(F)cc1 [Example 356, 4,4-Difluoro-1-[(4-fluorophenyl)sulfonyl]-N-({2-[4-(pyridin-4-ylmethyl)piperazin-1-yl]-6-[4-(trifluoromethyl)phenyl]pyridin-4-yl}methyl)-L-prolinamide]"
12,2.93 µM,"C[C@@H](NC(=O)[C@@H]1CCCN1S(=O)(=O)c1ccc(F)cc1)c1cccc(-c2ccc(C(F)(F)F)cc2)c1 [Example 114, (1R,2S)-1-(4-Fluoro-benzenesulfonyl)-pyrrolidine-2-carboxylic acid [1-(4′-trifluoromethyl-biphenyl-3-yl)ethyl]-amide]"
13,0.043 µM,"O=C(NCc1cc(-c2ccc(C(F)(F)F)cc2)nc(N2CCN(Cc3ccccc3)CC2)c1)[C@@H]1CCCN1S(=O)(=O)c1ccc(F)cc1 [Example 373, N-({2-(4-Benzylpiperazin-1-yl)-6-[4-(trifluoromethyl)phenyl]pyridin-4-yl}methyl)-1-[(4-fluorophenyl)sulfonyl]-L-prolinamide]"
14,0.388 µM,"Cc1cccc(S(=O)(=O)N2CCC[C@H]2C(=O)NCc2cc(-c3ccc(C(F)(F)F)cc3)ncn2)c1 [Example 156, 1-(Toluene-3-sulfonyl)-pyrrolidine-2S-carboxylic acid [6-(4-trifluoromethylphenyl)-pyrimidin-4-ylmethyl]-amide]"
15,0.13 µM,"O=C(NCc1cc(-c2ccc(C(F)(F)F)cc2)nc(N2CCN(Cc3ccccn3)CC2)n1)[C@@H]1CCCN1S(=O)(=O)c1ccc(F)cc1 [Example 22, 1-(4-Fluoro-benzenesulfonyl)-pyrrolidine-2S-carboxylic acid [2-(4-pyridin-2-ylmethyl-piperazin-1-yl)-6-(4-trifluoromethyl-phenyl)-pyrimidin-4-ylmethyl]-amide]"
16,0.011 µM,"O=C(NCc1cc(-c2ccc(C(F)(F)F)cc2)nc(-c2ccccc2C(F)(F)F)n1)[C@@H]1CCCN1S(=O)(=O)c1ccc(F)cc1 [Example 6, 1-(4-Fluoro-benzenesulfonyl)-pyrrolidine-2S-carboxylic acid [2-(2-trifluoromethyl-phenyl)-6-(4-trifluoromethyl-phenyl)-pyrimidin-4-ylmethyl]-amide]"
17,1.09 µM,"CN1CCC(CNc2nc(CNC(=O)[C@@H]3CCCN3S(=O)(=O)c3ccc(F)cc3)cc(-c3ccc(C(F)(F)F)cc3)n2)C1 (stereo partly drawn) [Example 12, 1-(4-Fluoro-benzenesulfonyl)-pyrrolidine-2S-carboxylic acid [2-[(1-methyl-pyrrolidin-3-ylmethyl)-amino]-6-(4-trifluoromethyl-phenyl)-pyrimidin-4-ylmethyl]-amide]"
18,0.021 µM,"O=C(NCc1ccnc(-c2ccc(OC(F)(F)F)cc2)c1)[C@@H]1C=CCN1S(=O)(=O)c1ccc(Cl)s1 [Example 134, 1-(5-Chloro-thiophene-2-sulfonyl)-2,5-dihydro-1H-pyrrole-2S-carboxylic acid [2-(4-trifluoromethoxy-phenyl)-pyridin-4-ylmethyl]-amide]"
19,1.19 µM,"O=C(NCc1cc(-c2ccc(C(F)(F)F)cc2)nc(N2CCN(c3ccccc3F)CC2)c1)[C@@H]1C=CCN1S(=O)(=O)c1ccc(Cl)s1 [Example 359, (2S)-1-[(5-Chlorothiophen-2-yl)sulfonyl]-N-({2-[4-(2-fluorophenyl)piperazin-1-yl]-6-[4-(trifluoromethyl)phenyl]pyridin-4-yl}methyl)-2,5-dihydro-1H-pyrrole-2-carboxamide]"
20,8.3 µM,"COc1ccc(-c2cccc(CNC(=O)[C@@H]3CCCN3S(=O)(=O)c3ccc(F)cc3)c2)nc1 [Example 90, 1-(4-Fluorobenzenesulfonyl)-pyrrolidine-2S-carboxylic acid 3-(5-methoxypyridin-2-yl)-benzylamide]"
